This test concerns 653999-131-R-J2-PDC complex spheroids, growth % test/control. Description: Anticancer human tumor 653999-131-R-J2-PDC patient-derived lung adenocarcinoma cell line growth inhibition [AhR]. The following applies: for viability, T/C: stronger effect = lower value. The procedure, abridged: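 Agents were dosed in half-log steps down from roughly clinical Cmax, or from 10 microM where Cmax was unknown, alone and with AhR antagonists. Read-out: percent test/control growth of tumor spheroids containing HUVEC and MSC stromal cells.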

The mark [1] stands for this setting: curve of first compound, second compound 0.1 µM.
The mark [2] stands for this setting: curve of first compound, second compound 0.316 µM.
[3] abbreviates: curve of first compound, second compound 1 µM.
[4] abbreviates: curve of first compound, second compound 3.16 µM.
Where [5] appears, read: curve of first compound, second compound 10 µM.
Setting [6] is: second compound 0.1 µM, first compound 0.000316 µM.
Where [7] appears, read: second compound 0.1 µM, first compound 0.001 µM.
Setting [8] is: second compound 0.1 µM, first compound 0.00316 µM.
Where [9] appears, read: second compound 0.1 µM, first compound 0.01 µM.
[10] abbreviates: second compound 0.1 µM, first compound 0.0316 µM.
The mark [11] stands for this setting: second compound 0.1 µM, first compound 0.1 µM.
Setting [12] is: second compound 0.316 µM, first compound 0.000316 µM.
The mark [13] stands for this setting: second compound 0.316 µM, first compound 0.001 µM.
The mark [14] stands for this setting: second compound 0.316 µM, first compound 0.00316 µM.
Where [15] appears, read: second compound 0.316 µM, first compound 0.01 µM.
The mark [16] stands for this setting: second compound 0.316 µM, first compound 0.0316 µM.
Where [17] appears, read: second compound 0.316 µM, first compound 0.1 µM.
Setting [18] is: second compound 1 µM, first compound 0.000316 µM.
Where [19] appears, read: second compound 1 µM, first compound 0.001 µM.
Where [20] appears, read: second compound 1 µM, first compound 0.00316 µM.
[21] abbreviates: second compound 1 µM, first compound 0.01 µM.
Setting [22] is: second compound 1 µM, first compound 0.0316 µM.
[23] abbreviates: second compound 1 µM, first compound 0.1 µM.
Setting [24] is: second compound 3.16 µM, first compound 0.000316 µM.
Where [25] appears, read: second compound 3.16 µM, first compound 0.001 µM.
[26] abbreviates: second compound 3.16 µM, first compound 0.00316 µM.
The mark [27] stands for this setting: second compound 3.16 µM, first compound 0.01 µM.
Where [28] appears, read: second compound 3.16 µM, first compound 0.0316 µM.
The mark [29] stands for this setting: second compound 3.16 µM, first compound 0.1 µM.
Where [30] appears, read: second compound 10 µM, first compound 0.000316 µM.
[31] abbreviates: second compound 10 µM, first compound 0.001 µM.
[32] abbreviates: second compound 10 µM, first compound 0.00316 µM.
Where [33] appears, read: second compound 10 µM, first compound 0.01 µM.
[34] abbreviates: second compound 10 µM, first compound 0.0316 µM.
Setting [35] is: second compound 10 µM, first compound 0.1 µM.

Each structure is given as a SMILES string. Where “and” joins values, the source holds several entries; their conditions need not be identical. Equal entries are not always repeated.

The IC50 is the point on the concentration scale where inhibition reaches its midpoint. Broadly, the viability, T/C is the ratio of treated to control.
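Also: spheroids exposed to agents for seven days.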
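For viability, T/C in this document: 100% = DMSO vehicle control viability.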

For `Cn1ncnc1C1c2n[nH]c(=O)c3cc(F)cc(c23)NC1c1ccc(F)cc1` (centres undefined) + Cc1cncc(-c2nc(NCCc3c[nH]c4ccccc34)c3ncn(C(C)C)c3n2)c1, the 50% inhibitory concentration (IC50) was more than 100 nM under setting [1]; more than 100 nM under setting [2]; more than 100 nM under setting [3]; more than 100 nM under setting [4]; more than 100 nM under setting [5]. Moreover, the viability, T/C runs as follows: under setting [6], 96%; under setting [7], 96.2%; under setting [8], 97.4%; under setting [9], 84.8%; under setting [10], 86.6%; under setting [11], 85.6%. In addition, the viability, T/C is, setting by setting: under setting [12], 97.9%; under setting [13], 92.5%; under setting [14], 94.3%; under setting [15], 90.6%; under setting [16], 85.6%; under setting [17], 86.5%. The viability, T/C by setting is: under setting [18], 104%; under setting [19], 113%; under setting [20], 104%; under setting [21], 101%; under setting [22], 103%; under setting [23], 94%. In addition, the viability, T/C under setting [24] was 122%; the viability, T/C under setting [25] is 99.5%; the viability, T/C under setting [26] was 104%; the viability, T/C under setting [27] is 93.7%; the viability, T/C under setting [28] was 100%; the viability, T/C under setting [29] was 98.2%. Also, the viability, T/C under setting [30] is 52.4%; the viability, T/C under setting [31] is 55.5%; the viability, T/C under setting [32] is 62%; the viability, T/C under setting [33] was 56%; the viability, T/C under setting [34] is 47.5%; the viability, T/C under setting [35] is 58.3%.
On to `COc1cccc2c1C(=O)c1c(O)c3c(c(O)c1C2=O)CC(O)(C(=O)CO)CC3OC1CC(N)C(O)C(C)O1` (centres undefined), for which the viability, T/C reads like this: (compound 0.0316 µM) 62.4% and 56% and 66.2%; (compound 0.1 µM) 40.9% and 45.6% and 56.4%; (compound 0.316 µM) 28.3% and 26.5% and 28.1%; (compound 1 µM) 7.89% and 10.5% and 10.6%; (compound 3.16 µM) 3.94% and 7.29% and 3.85%; (compound 10 µM) 10.6% and 20.5% and 19.3%. The IC50 (curve of compound) was 66.2 nM and 65.3 nM and 132 nM.
Take `CCN(c1cc(-c2ccc(CN3CCOCC3)cc2)cc(C(=O)NCc2c(C)cc(C)[nH]c2=O)c1C)C1CCOCC1`: the viability, T/C reads like this: (compound 0.00949 µM) 105% and 101% and 115%; (compound 0.03 µM) 104% and 95.7% and 106%; (compound 0.0949 µM) 114% and 88.5% and 110%; (compound 0.3 µM) 102% and 89.3% and 100%; (compound 0.949 µM) 108% and 98.8% and 96.9%; (compound 3 µM) 94.6% and 104% and 96.3%. Further, the IC50 (curve of compound) was more than 3000 nM.
Consider `CC[C@@]1(O)C(=O)OCc2c1cc1n(c2=O)Cc2cc3c(CN(C)C)c(O)ccc3nc2-1` + CC(CO)NC(=O)c1cc(-c2ccc(Cl)cc2)nn(-c2cnn(C)c2)c1=O, for which the concentration for half-maximal inhibition (IC50) by setting is: under setting [1], 36.7 nM; under setting [2], 27.7 nM; under setting [3], 24.5 nM; under setting [4], 22.9 nM; under setting [5], 21 nM. Moreover, the viability, T/C runs as follows: under setting [6], 94.8%; under setting [7], 97.8%; under setting [8], 94.9%; under setting [9], 79%; under setting [10], 52.2%; under setting [11], 38.1%. Also, the viability, T/C is 93.2% under setting [12]; 94.4% under setting [13]; 97.4% under setting [14]; 79.1% under setting [15]; 46.8% under setting [16]; 31.3% under setting [17]. Besides, the viability, T/C reads like this: under setting [18], 111%; under setting [19], 96%; under setting [20], 99.1%; under setting [21], 80.7%; under setting [22], 40.6%; under setting [23], 32.3%. Moreover, the viability, T/C is, setting by setting: under setting [24], 85.9%; under setting [25], 92.3%; under setting [26], 95.3%; under setting [27], 69.8%; under setting [28], 43.6%; under setting [29], 31.4%. For the same molecule, the viability, T/C is, setting by setting: under setting [30], 90.5%; under setting [31], 95.3%; under setting [32], 83.7%; under setting [33], 65.9%; under setting [34], 41.3%; under setting [35], 32.3%.

These data come from PubChem BioAssay AID1919000 (Molecular Pharmacology Branch, DTP, NCI, 2023).
